Assay type in all cases: biochemical
The target of experiment [1] is 12α-HSDH aus Clostridium sp. group P strain 48-50, Wildtypenzym (Clostridium sp., UniProt P21215). As to the kind of experiment: Product inhibition of 12α-HSDH by 12-ketochenodeoxycholic acid. Particulars: loss of activity at 5 % Umsatz; 100 % = activity at 0 % Umsatz (5mM CS); product concentration not given. The source says:
"Poduktinhibition" der 12α-HSDH beschreibt die Verringerung der enzymatischen Aktivität in Gegenwart eines bei einer durch das Enzym katalysierten enzymatischen Umsetzung gebildeten Produkts. Bei Umsetzung zu CS ist so z.B. eine Inhibition durch 12-Keto-CDCS zu beobachten. Eine "Verringerung der Produktinhibition" beschreibt die verringerte prozentuale Abnahme der Enzymaktivität einer erfindungsgemäß eingesetzten Enzymmutante im Vergleich zu einem Referenzsystem, wie z.B. dem nativen HSDH-Enzym, jeweils bezogen auf die bei 0 % Umsatz (entsprechend 5mM CS) ermittelte Enzymaktivität als 100 %-Aktivitätswert. Diese Verringerung kann, wie im experimentellen Teil, bzw. in der Legende zu Figur 9 beschrieben, bestimmt werden. Verringerungen der Produktinhibition können auch über das Verhältnis der Restaktivitäten von Mutante zu Referenzenzym jeweils bestimmt bei gleichem prozentualen Umsatz, ausgedrückt werden. So kann die ererfindungsgemäß eingesetzte Mutante eine um den Faktor 1,1 bis 100, wie z.B. 1,5 bis 20 oder 2 bis 10 erhöhte Aktivität besitzen.
Die Aktivität wird wie folgt definiert: 1 U des Enzyms entspricht der Enzymmenge, welche die Umsetzung von 1 µmol/min einer 5 mM Cholsäurelösung in KaliumphosphatPuffer (50 mM, pH 8,0) bei Raumtemperatur (d.h. ca. 20 °C-23 °C) katalysiert. […]

The target in experiment [2] is Reduktase Domäne der CYP102A1 aus Bacillus megaterium (EC 1.6.2.4), SEQ ID NO: 24 (Priestia megaterium, UniProt P14779). The experiment is described as follows: NADPH oxidation with DCIP as electron acceptor, tolerance to cholic acid. Particulars: remaining activity with 0,1 M Cholsäure, 100% = ohne Cholsäure; 75 µM DCIP, 100 µM NADPH, 50 mM Tris-HCl (pH 8); read-out: Mit 0, 1 M Cholsäure, U/mg Protein (%). Here is the method: (§1) Die NADPH-Dehydrogenase Aktivität wurde unter Verwendung von Dichlorphenolindophenol (DCIP) als Substrat bestimmt. Die Reaktion wurde durch Zugabe von Enzym (2-50 µl) zu 1 ml Reaktionsgemisch, enthaltend 50 mM Tris-HCl (pH 8), 75 µM DCIP, 100 µM NADPH mit bzw. ohne 0,1 M Cholsäure gestartet. Die Reduktion von DCIP wurde durch Abnahme der Extinktion bei 600 nm spektrophotometrisch bestimmt. Die Aktivitätseinheit (µM DCIP reduziert/min) wurde mit Hilfe des Extinktions-Coeffizienten von DCIP von 20 mM^-1 cm^-1 bei 600 nm bestimmt.
(§2) Folgende Enzyme wurden getestet: Flavodoxin Reduktase aus E. coli, Reduktase Domäne der CYP102A1 aus Bacillus megaterium; Glutathion Reduktase aus Saccharomyces cerevisiae und Diaphorase aus Clostridium kluyveri. Die Ergebnisse sind in der folgenden Tabelle 2 zusammengestellt.

Experiment [3] concerns the target T1, Glutathion Reduktase aus Saccharomyces cerevisiae (Saccharomyces cerevisiae, UniProt P41921).
T1 construct: purchased Sigma
T1 sequence (P41921 1-467 isoform P41921-2): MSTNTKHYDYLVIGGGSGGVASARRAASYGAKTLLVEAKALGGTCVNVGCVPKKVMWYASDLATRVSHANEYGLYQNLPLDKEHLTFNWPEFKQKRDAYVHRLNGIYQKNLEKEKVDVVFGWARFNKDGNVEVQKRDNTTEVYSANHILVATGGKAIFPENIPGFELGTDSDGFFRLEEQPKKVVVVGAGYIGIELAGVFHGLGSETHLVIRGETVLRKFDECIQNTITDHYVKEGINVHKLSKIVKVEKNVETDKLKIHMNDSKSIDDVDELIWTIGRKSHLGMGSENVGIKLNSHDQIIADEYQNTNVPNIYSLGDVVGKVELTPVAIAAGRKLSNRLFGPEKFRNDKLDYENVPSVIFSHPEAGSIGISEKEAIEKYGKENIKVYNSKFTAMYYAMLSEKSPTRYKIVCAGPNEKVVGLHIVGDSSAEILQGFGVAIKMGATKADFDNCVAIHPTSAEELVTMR
The experiment is described as above. Particulars: remaining activity with 0,1 M Cholsäure, 100% = ohne Cholsäure; 75 µM DCIP, 100 µM NADPH, 50 mM Tris-HCl (pH 8); read-out: Mit 0, 1 M Cholsäure, U/mg Protein (%). On the procedure: as §1, §2

Experiment [4] deals with T2, Flavodoxin Reduktase aus E. coli (EC 1.18.1.2), SEQ ID NO: 26 (Escherichia coli, UniProt P28861).
T2 construct: made in house; host or cells: E. coli
The experiment is described as above. Particulars: remaining activity with 0,1 M Cholsäure, 100% = ohne Cholsäure; 75 µM DCIP, 100 µM NADPH, 50 mM Tris-HCl (pH 8); read-out: Mit 0, 1 M Cholsäure, U/mg Protein (%). On the procedure: as §1, §2

The test system of experiment [5] is Diaphorase aus Clostridium kluyveri. The experiment is described as above. Particulars: remaining activity with 0,1 M Cholsäure, 100% = ohne Cholsäure; 75 µM DCIP, 100 µM NADPH, 50 mM Tris-HCl (pH 8). On the procedure: as §1, §2
Experiment [6] has as its target T3, NAD(P)H-Flavin Reduktase aus E. coli (EC 1.5.1.29 / 1.16.1.3), SEQ ID NO: 30 (Escherichia coli, UniProt P0AEN1).
T3 construct: made in house; host or cells: E. coli (cell lysate)
As to the kind of experiment: NADPH oxidation with riboflavin as electron acceptor, tolerance to cholic acid. Particulars: activity with 0,1 M Cholsäure, 100% = ohne Cholsäure; 10 µM Riboflavin, 100 µM NADPH, 50 mM Tris-HCl (pH 8); read-out: Mit 0, 1 M Cholsäure, U/ml E. coli Zell-Lysate (%). Here is the method:
(§3) Die NADPH-Oxidation unter Verwendung von Riboflavin als Elektronenakzeptor wurde in 1 ml Reaktionsmedium, enthaltend 2-50 µl Enzymlösung, 50 mM Tris-HCl (pH 8), 10 µM Riboflavin, 100 µM NADPH mit und ohne 0,1 M Cholsäure bestimmt. Die Oxidation von NADPH wurde über die Abnahme der Extinktion bei 340 nm spektrophotometrisch aufgezeichnet. Die Aktivitätseinheit (uM NADPH oxidiert/min) wurde mit Hilfes des millimolaren Extinktionscoeffizienten für NADPH von 6,22 mM^-1 cm^-1 bei 340 nm bestimmt.
(§4) Folgende Enzyme wurden getestet: NADPH Dehydrogenase aus Bacillus stearothermophilus Sulfit Reduktase, Flavin-Subunit von Sulfit-Reduktase aus E. coli und NAD(P)H-Flavin Reduktase aus E. coli. Die Ergebnisse sind in folgender Tabelle 3 zusammengefasst: TABELLE 3

Experiment [7] relates to NADPH Dehydrogenase aus Bacillus stearothermophilus Sulfit Reduktase (EC 1.8.1.2), SEQ ID NO: 28. The description is as above. Particulars: activity with 0,1 M Cholsäure, 100% = ohne Cholsäure; 10 µM Riboflavin, 100 µM NADPH, 50 mM Tris-HCl (pH 8). Here is the method:
as §3, §4

The target in experiment [8] is T4, NADPH Dehydrogenase aus Sulfit-Reduktase (E. coli); Flavin-Subunit von Sulfit-Reduktase aus E. coli (Escherichia coli, UniProt P38038).
T4 construct: made in house; host or cells: E. coli (cell lysate)
The experiment is described as above. Particulars: activity with 0,1 M Cholsäure, 100% = ohne Cholsäure; 10 µM Riboflavin, 100 µM NADPH, 50 mM Tris-HCl (pH 8). On the procedure: as §3, §4

Structures are written as SMILES.

T3 sequence (P0AEN1 whole entry): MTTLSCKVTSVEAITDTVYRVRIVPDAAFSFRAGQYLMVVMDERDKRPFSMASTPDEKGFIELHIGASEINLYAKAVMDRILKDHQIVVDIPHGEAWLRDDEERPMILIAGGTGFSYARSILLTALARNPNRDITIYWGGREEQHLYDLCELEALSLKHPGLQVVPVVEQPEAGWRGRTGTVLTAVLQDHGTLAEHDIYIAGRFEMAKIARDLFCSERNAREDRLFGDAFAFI
T4 sequence (P38038 whole entry): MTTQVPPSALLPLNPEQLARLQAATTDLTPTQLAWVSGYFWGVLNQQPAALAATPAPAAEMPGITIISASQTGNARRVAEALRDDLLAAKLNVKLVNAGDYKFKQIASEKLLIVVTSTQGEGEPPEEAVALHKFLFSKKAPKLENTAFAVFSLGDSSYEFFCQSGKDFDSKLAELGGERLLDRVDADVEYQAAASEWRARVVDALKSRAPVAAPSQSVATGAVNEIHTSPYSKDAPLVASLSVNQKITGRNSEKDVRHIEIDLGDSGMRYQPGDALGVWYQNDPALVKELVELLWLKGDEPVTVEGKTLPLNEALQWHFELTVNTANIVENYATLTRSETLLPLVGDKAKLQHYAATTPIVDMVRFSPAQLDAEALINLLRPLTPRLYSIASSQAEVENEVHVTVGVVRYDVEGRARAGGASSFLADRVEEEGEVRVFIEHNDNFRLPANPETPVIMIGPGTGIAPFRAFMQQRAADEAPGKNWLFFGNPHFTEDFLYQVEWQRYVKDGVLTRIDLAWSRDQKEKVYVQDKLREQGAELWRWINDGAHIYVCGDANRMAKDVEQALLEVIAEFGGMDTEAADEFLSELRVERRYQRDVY
Chain of 12α-HSDH aus Clostridium sp. group P strain 48-50, Wildtypenzym (P21215 whole entry): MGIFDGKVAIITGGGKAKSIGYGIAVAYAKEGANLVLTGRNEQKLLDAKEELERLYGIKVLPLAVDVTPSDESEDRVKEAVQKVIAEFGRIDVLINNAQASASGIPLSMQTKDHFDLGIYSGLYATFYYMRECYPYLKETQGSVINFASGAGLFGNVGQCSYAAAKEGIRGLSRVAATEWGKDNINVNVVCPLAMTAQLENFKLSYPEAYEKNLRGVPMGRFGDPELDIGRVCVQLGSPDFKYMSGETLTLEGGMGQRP
T2 sequence (P28861 whole entry): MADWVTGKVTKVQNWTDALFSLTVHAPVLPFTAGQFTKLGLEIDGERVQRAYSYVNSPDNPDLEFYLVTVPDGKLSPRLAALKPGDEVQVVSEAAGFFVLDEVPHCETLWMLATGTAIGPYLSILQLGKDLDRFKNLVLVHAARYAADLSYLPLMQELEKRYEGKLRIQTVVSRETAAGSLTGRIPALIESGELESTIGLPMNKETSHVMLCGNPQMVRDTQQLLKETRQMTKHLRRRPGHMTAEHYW
Chain of Reduktase Domäne der CYP102A1 aus Bacillus megaterium (EC 1.6.2.4), SEQ ID NO: 24 (P14779 473-1049): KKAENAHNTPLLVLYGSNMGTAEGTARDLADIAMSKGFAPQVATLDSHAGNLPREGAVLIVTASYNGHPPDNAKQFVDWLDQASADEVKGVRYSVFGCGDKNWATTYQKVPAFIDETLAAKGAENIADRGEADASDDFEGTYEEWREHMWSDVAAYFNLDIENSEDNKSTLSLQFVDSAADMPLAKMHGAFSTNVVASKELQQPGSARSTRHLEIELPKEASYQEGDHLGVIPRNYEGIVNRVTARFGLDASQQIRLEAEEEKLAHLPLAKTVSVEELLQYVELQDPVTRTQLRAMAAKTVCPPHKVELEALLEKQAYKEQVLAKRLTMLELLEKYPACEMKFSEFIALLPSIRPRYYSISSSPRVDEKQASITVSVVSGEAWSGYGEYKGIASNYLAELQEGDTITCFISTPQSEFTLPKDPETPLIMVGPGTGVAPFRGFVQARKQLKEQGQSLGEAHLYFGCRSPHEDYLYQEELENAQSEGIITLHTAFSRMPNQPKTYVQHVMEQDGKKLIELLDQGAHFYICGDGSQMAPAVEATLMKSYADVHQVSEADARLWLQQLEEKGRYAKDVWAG

As to `C[C@H](CCC(=O)O)[C@H]1CC[C@H]2[C@@H]3[C@H](O)C[C@@H]4C[C@H](O)CC[C@]4(C)[C@H]3CC(=O)[C@]12C` [12-Ketochenodesoxycholsäure], the “Verlust (Produktinhibierung durch 12-Ketochenodesoxycholsäure)” value in experiment [1] came out at 60%.

Turning to `C[C@H](CCC(=O)O)[C@H]1CC[C@H]2[C@@H]3[C@H](O)C[C@@H]4C[C@H](O)CC[C@]4(C)[C@H]3C[C@H](O)[C@]12C` [Cholsäure], the activity at 100000 µM in experiment [2] was found to be 35%; in experiment [3] it was 15%; in experiment [4] it was 93%; in experiment [6], 5%. In addition, the “Mit 0, 1 M Cholsäure, U/mg Protein (%)” value in experiment [5] is reported as 0,26 (3 %). For the same compound, the “Mit 0, 1 M Cholsäure, U/ml E. coli Zell-Lysate (%)” value in experiment [7] is 22,1 (155 %); in experiment [8], 2,1 (6 %).

For the origin of these results see EP2333100B1, “NAD(P)+-cofactor regeneration system und its use” (priority 2009, dated 2011).
